According to publication PMC9261963, “Synthesis and Biological Evaluation of 5-Fluoro-2-Oxindole Derivatives as Potential α-Glucosidase Inhibitors” (Frontiers in Chemistry, 2022):
Read-outs that look alike come from different tables or passages of the source.

Experiments:
[1] = molecular target: T1, α-glucosidase from Saccharomyces cerevisiae (EC 3.2.1.20) (Saccharomyces cerevisiae, UniProt P53341); assay: biochemical; details: for IC50 / inhibition at 100 µM / Inhibition rate at a concentration of 100 μM (%): p-NPG substrate; for IC50: pH 6.8, 37°C; for inhibition at 100 µM: read-out: Inhibition rate at a concentration of 100 μM (%), 100 μM compound; for Inhibition rate at a concentration of 100 μM (%): 100 μM compound; for Inhibitory activity, folds higher than acarbose: IC50 compared with acarbose
T1 construct: purchased Sigma-Aldrich
Procedure: Then, the inhibitory activity of compounds (3a ∼ 3v) on α-glucosidase from S. cerevisiae was investigated using p-NPG as the substrate. First, the inhibitory activities of compounds (3a ∼ 3v) were screened at a concentration of 100 μM.
The α-glucosidase inhibition of synthetic compounds was performed as previously reported methods with minor modification ([Deng et al., 2022]) which is as follows: briefly, 130 μl of phosphate buffer (10 mM, pH 6.8), 10 μl of α-glucosidase (1 U/ml), and 10 μl of test compound solution were added into the wells of a 96-well plate, followed by incubation for 10 min at 37°C. Then, 50 μl of p-NPG (1 mM) was added, and the plate was further incubated for 30 min at 37°C. Finally, the absorbance of each well was recorded at 405 nm using a microplate reader. […] The inhibition of the test compound on α-glucosidase was calculated as follows: inhibition ratio (%) = [(A− B)/A] × 100, where A is the absorbance of blank and B is the absorbance of the test compound. Each concentration was experimented four times in parallel. Half inhibitory concentration (IC50) was obtained from the fitting curve of inhibition ratio vs. test compound with different concentrations.

[2] = molecular target: T1, α-glucosidase from Saccharomyces cerevisiae (EC 3.2.1.20); assay: Kinetics mechanism analysis (enzyme activity vs enzyme concentration; Lineweaver–Burk plots); format: biochemical; details: for Inhibition mechanism (inhibition type): Lineweaver–Burk plot analysis; for Ki: inhibition constant from slope vs inhibitor concentration (free enzyme); for K IS: inhibition constant from vertical intercept vs inhibitor concentration (enzyme–substrate complex); for Reversibility of inhibition: plots of enzyme activity vs enzyme concentration
Procedure: In order to obtain the inhibition kinetics type of compounds 3d, 3f, and 3i, the Lineweaver–Burk plot analysis method was carried out with different concentrations of test compounds and substrates.
Compounds 3d, 3f, and 3i with much better α-glucosidase inhibitory activity were selected for kinetic analysis. The experiments were performed to investigate the kinetics mechanism of compounds 3d, 3f, and 3i by the previously reported method ([Xu et al., 2019]). To determine the inhibition mechanism, the final concentrations for 3d were 0, 40, 50, 60 μM, for 3f were 0, 40, 50, 60 μM, and for 3i were 0, 30, 40, 50 μM, the final substrate p-NPG concentration was 0.25 mM, and the final concentrations for α-glucosidase were 3.75 × 10^–2, 5.00 × 10^–2, 6.25 × 10^–2, and 7.50 × 10^–2 U/ml. Then, the inhibition rates were measured by the aforementioned method.
To analyze the inhibition type, the final concentrations for 3d were 0, 40, 50, and 60 μM, for 3f were 0, 40, 50, and 60 μM, and for 3i were 0, 30, 40, and 50 μM, the final α-glucosidase concentration was 5.00 × 10^–2 U/ml, and final concentrations for substrate p-NPG concentration were 0.25, 0.50, 0.75, and 1.00 mM. The inhibition rates were obtained by the aforementioned method. The inhibition type on α-glucosidase was analyzed by using Lineweaver–Burk plots of the inverse of velocities (1/v) vs. the inverse of substrate concentration 1/[S]. The K I and K IS were obtained from the slope and the vertical intercept vs. the inhibitor concentration, respectively.
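Throughout, for IC50 (μM): Absorbance-based enzyme read-out, with each concentration tested in four parallel replicates.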
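Throughout, for IC50: Absorbance-based enzyme read-out, with each concentration tested in four parallel replicates.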
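Throughout, for Inhibition rate at a concentration of 100 μM (%): Absorbance-based enzyme read-out, with each concentration tested in four parallel replicates.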
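Throughout, for Inhibitory activity, folds higher than acarbose: Absorbance-based enzyme read-out, with each concentration tested in four parallel replicates.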

T1 sequence (P53341 whole entry): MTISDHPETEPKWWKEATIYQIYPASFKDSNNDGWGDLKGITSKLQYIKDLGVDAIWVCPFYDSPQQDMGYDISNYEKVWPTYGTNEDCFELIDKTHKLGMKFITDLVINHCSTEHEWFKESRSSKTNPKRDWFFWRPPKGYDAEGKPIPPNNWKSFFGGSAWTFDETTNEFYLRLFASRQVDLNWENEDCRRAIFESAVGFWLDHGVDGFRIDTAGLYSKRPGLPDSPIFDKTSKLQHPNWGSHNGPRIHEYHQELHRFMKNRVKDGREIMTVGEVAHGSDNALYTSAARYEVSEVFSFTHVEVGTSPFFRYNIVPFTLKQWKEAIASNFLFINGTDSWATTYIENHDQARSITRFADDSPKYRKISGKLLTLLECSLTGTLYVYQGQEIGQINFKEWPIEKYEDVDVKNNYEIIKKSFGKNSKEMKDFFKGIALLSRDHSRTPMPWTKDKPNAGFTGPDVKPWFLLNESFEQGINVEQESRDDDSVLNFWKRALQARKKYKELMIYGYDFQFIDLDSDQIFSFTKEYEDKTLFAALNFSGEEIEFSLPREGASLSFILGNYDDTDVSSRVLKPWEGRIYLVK

Molecule | IC50 ([1]; read-out: IC50) [µM] | IC50 ([1]; IC50 (μM)) [µM] | inhibition at 100 µM [1] [%] | melting point [°C] | Inhibition rate at a concentration of 100 μM (%) [1] [%] | Inhibitory activity, folds higher than acarbose [1] | Inhibition mechanism (inhibition type) [2] | Ki [2] [µM] | K IS [2] [µM] | Reversibility of inhibition [2]
O=C1Cc2cc(F)ccc2N1 [5-Fluoro-2-oxindole, 5-fluoro-2-oxindole] | 7510 |  |  |  |  |  |  |  |  | 
O=C1Nc2ccc(F)cc2/C1=C/c1ccccc1F [Compound 3a, (Z)-5-Fluoro-3-(2-Fluorobenzylidene) Indolin-2-One] |  | > 100 | 7.29 ± 0.16 | 228.3 to 230.2 |  |  |  |  |  | 
O=C1Nc2ccc(F)cc2/C1=C/c1cccc(F)c1 [Compound 3b, (Z)-5-Fluoro-3-(3-Fluorobenzylidene) Indolin-2-One] |  | > 100 | 5.19 ± 0.79 | 191.4 to 192.2 |  |  |  |  |  | 
O=C1Nc2ccc(F)cc2/C1=C/c1ccc(F)cc1 [Compound 3c, (Z)-5-Fluoro-3-(4-Fluorobenzylidene) Indolin-2-One] |  | > 100 | 9.55 ± 0.13 | 217 to 219.6 |  |  |  |  |  | 
O=C1Nc2ccc(F)cc2/C1=C/c1ccccc1Cl [Compound 3d, (Z)-3-(2-Chlorobenzylidene)-5-Fluoroindolin-2-One] |  | 49.9 ± 1.16 | ~90 | 219.7 to 221.9 | 89.19 ± 0.14 | 10 ∼ 15 folds | Mixed type | 15 | 453.85 | reversible
O=C1Nc2ccc(F)cc2/C1=C/c1cccc(Cl)c1 [Compound 3e, (Z)-3-(3-Chlorobenzylidene)-5-Fluoroindolin-2-One] |  | > 100 | 21.6 ± 0.78 | 237.4 to 238.9 |  |  |  |  |  | 
O=C1Nc2ccc(F)cc2/C1=C/c1ccc(Cl)cc1 [Compound 3f, (Z)-3-(4-Chlorobenzylidene)-5-Fluoroindolin-2-One] |  | 35.8 ± 0.98 | ~90 | 200.6 to 202.5 | 90.52 ± 0.27 | 10 ∼ 15 folds | Mixed type | 33.8 | 58.31 | reversible
O=C1Nc2ccc(F)cc2/C1=C/c1ccccc1Br [Compound 3g, (Z)-3-(2-Bromobenzylidene)-5-Fluoroindolin-2-One] |  | 95.68 ± 0.28 | ~50 | 194.9 to 197.1 | 53.71 ± 0.47 |  |  |  |  | 
O=C1Nc2ccc(F)cc2/C1=C/c1cccc(Br)c1 [Compound 3h, (Z)-3-(3-Bromobenzylidene)-5-Fluoroindolin-2-One] |  | > 100 | 31.61 ± 0.21 | 222.6 to 223.8 |  |  |  |  |  | 
O=C1Nc2ccc(F)cc2/C1=C/c1ccc(Br)cc1 [Compound 3i, (Z)-3-(4-Bromobenzylidene)-5-Fluoroindolin-2-One] |  | 56.87 ± 0.42 | ~90 | 249.3 to 251.6 | 92.86 ± 0.32 | 10 ∼ 15 folds | Mixed type | 22.7 | 24.74 | reversible
COc1ccccc1/C=C1\C(=O)Nc2ccc(F)cc21 [Compound 3j, (Z)-5-Fluoro-3-(2-Methoxybenzylidene) Indolin-2-One] |  | > 100 | 19.2 ± 1.21 | 227.1 to 227.8 |  |  |  |  |  | 
COc1cccc(/C=C2\C(=O)Nc3ccc(F)cc32)c1 [Compound 3k, (Z)-5-Fluoro-3-(3-Methoxybenzylidene) Indolin-2-One] |  | > 100 | 27.2 ± 1.47 | 200.1 to 202.1 |  |  |  |  |  | 
COc1ccc(/C=C2\C(=O)Nc3ccc(F)cc32)cc1 [Compound 3l, (Z)-5-Fluoro-3-(4-Methoxybenzylidene) Indolin-2-One] |  | > 100 | 15.7 ± 0.71 | 358.8 to 359.9 |  |  |  |  |  | 
O=C1Nc2ccc(F)cc2/C1=C/c1ccccc1C(F)(F)F [Compound 3m, (Z)-5-Fluoro-3-[2-(Trifluoromethyl) Benzylidene) Indolin-2-One] | > 100 |  | 8.43 ± 1.14 | 235.2 to 236.4 |  |  |  |  |  | 
O=C1Nc2ccc(F)cc2/C1=C/c1cccc(C(F)(F)F)c1 [Compound 3n, (Z)-5-Fluoro-3-[3-(Trifluoromethyl) Benzylidene] Indolin-2-One] |  | 96.78 ± 0.72 | ~50 | 199.7 to 200.5 | 52.79 ± 1.68 |  |  |  |  | 
O=C1Nc2ccc(F)cc2/C1=C/c1ccc(F)cc1F [Compound 3o, (Z)-3-(2,4-Difluorobenzylidene)-5-Fluoroindolin-2-One] |  | > 100 | 18.8 ± 1.15 | 221.1 to 224.3 |  |  |  |  |  | 
O=C1Nc2ccc(F)cc2/C1=C/c1ccccc1 [Compound 3q, (Z)-3-Benzylidene-5-Fluoroindolin-2-One] |  | > 100 | 10 ± 1.75 |  |  |  |  |  |  | 
CSc1ccc(/C=C2\C(=O)Nc3ccc(F)cc32)cc1 [Compound 3r, (Z)-5-Fluoro-3-[4-(Methylthio) Benzylidene] Indolin-2-One] |  | 90.6 ± 1.87 | ~50 | 246.1 to 247.1 | 60.8 ± 1.27 |  |  |  |  | 
O=C1Nc2ccc(F)cc2/C1=C/c1ccco1 [Compound 3s, (Z)-5-Fluoro-3-(Furan-2-ylmethylene) Indolin-2-One] |  | > 100 | 4.49 ± 1.88 | 237.9 to 238.8 |  |  |  |  |  | 
O=C1Nc2ccc(F)cc2/C1=C/c1cccs1 [Compound 3t, (Z)-5-Fluoro-3-(Thiophen-2-ylmethylene) Indolin-2-One] |  | > 100 | 5.67 ± 1.11 |  |  |  |  |  |  | 
O=C1Nc2ccc(F)cc2/C1=C/c1ccc[nH]1 [Compound 3u, (Z)-3-[(1H-Pyrrol-2-yl)methylene]-5-Fluoroindolin-2-One] |  | > 100 | 3.77 ± 1.35 |  |  |  |  |  |  | 
O=C1Nc2ccc(F)cc2/C1=C/c1ccccn1 [Compound 3v, (Z)-5-Fluoro-3-(Pyridin-2-ylmethylene) Indolin-2-One] |  | > 100 | 3.99 ± 1.28 | 248.5 to 251.2 |  |  |  |  |  | 
(Z)-3-(3,4-Difluorobenzylidene)-5-Fluoroindolin-2-One [Compound 3p] | 92.62 ± 0.45 |  |  |  | 55.89 ± 1.71 |  |  |  |  | 
